The text below walks through data of patent US20140141099A1, “DRUG DISCOVERY METHODS” (Vertex Pharmaceuticals Incorporated, priority 2007, published 2014).

One assay deals with T1, Aurora-2 (Aurora A) (Homo sapiens, UniProt O14965).
T1 sequence (O14965 1-403): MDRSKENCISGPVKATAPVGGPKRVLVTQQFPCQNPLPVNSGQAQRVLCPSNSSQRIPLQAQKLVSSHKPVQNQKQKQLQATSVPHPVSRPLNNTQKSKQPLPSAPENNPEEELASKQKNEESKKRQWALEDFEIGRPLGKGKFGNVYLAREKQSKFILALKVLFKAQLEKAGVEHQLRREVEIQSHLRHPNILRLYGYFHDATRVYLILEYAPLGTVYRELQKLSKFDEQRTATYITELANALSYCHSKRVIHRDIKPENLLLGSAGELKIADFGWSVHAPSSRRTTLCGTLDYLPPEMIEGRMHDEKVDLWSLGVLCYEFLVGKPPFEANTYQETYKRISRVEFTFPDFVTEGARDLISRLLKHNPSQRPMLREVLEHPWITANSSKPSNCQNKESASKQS
The experiment in a line: Aurora-2 (Aurora A) Inhibition Assay (coupled enzyme assay). In kind it is biochemical. The method, then:
Assays were carried out in a mixture of 100 mM Hepes (pH7.5), 10 mM MgCl2, 1 mM DTT, 25 mM NaCl, 2.5 mM phosphoenolpyruvate, 300 μM NADH, 30 μg/ml pyruvate kinase and 10 μg/ml lactate dehydrogenase. […] Assays were carried out at 30° C. and in the presence of 40 nM Aurora-2.
An assay stock buffer solution was prepared containing all of the reagents listed above, with the exception of Aurora-2 and the test compound of interest. […] The plate was preincubated for 10 minutes at 30° C. and the reaction initiated by addition of 10 μl of Aurora-2. Initial reaction rates were determined with a Molecular Devices SpectraMax Plus plate reader over a 10 minute time course. IC50 and Ki data were calculated from non-linear regression analysis using the Prism software package (GraphPad Prism version 3.0cx for Macintosh, GraphPad Software, San Diego Calif., USA).

For another assay, the target named is Aurora-1 (Aurora B) (Homo sapiens, UniProt Q96GD4). The experiment in a line: Aurora-1 (Aurora B) Inhibition Assay (Radiometric). It is filed as biochemical. The method, then:
An assay buffer solution was prepared which consisted of 25 mM HEPES (pH 7.5), 10 mM MgCl2, 0.1% BSA and 10% glycerol. […] To 22 μL of the Aurora-B solution, in a 96-well plate, was added 2 μl of a compound stock solution in DMSO and the mixture allowed to equilibrate for 10 minutes at 25° C. The enzyme reaction was initiated by the addition of 16 μl stock [γ-^33P]-ATP solution (˜20 nCi/μL) prepared in assay buffer, to a final assay concentration of 800 μM. The reaction was stopped after 3 hours by the addition of 16 μL 500 mM phosphoric acid and the levels of ^33P incorporation into the peptide substrate were determined by the following method.
A phosphocellulose 96-well plate (Millipore, Cat no. MAPHNOB50) was pre-treated with 100 μL of a 100 mM phosphoric acid prior to the addition of the enzyme reaction mixture (40 μL). The solution was left to soak on to the phosphocellulose membrane for 30 minutes and the plate subsequently washed four times with 200 μL of a 100 mM phosphoric acid. […] Levels of non-enzyme catalyzed background radioactivity were determined by adding 16 μL of the 500 mM phosphoric acid to control wells, containing all assay components (which acts to denature the enzyme), prior to the addition of the [γ-^33P]-ATP solution. Levels of enzyme catalyzed ^33P incorporation were calculated by subtracting mean background counts from those measured at each inhibitor concentration. […] Ki values were calculated from initial rate data by non-linear regression using the Prism software package (Prism 3.0, Graphpad Software, San Diego, Calif.).

In another assay the test system is tumor. The experiment in a line: Animal model of tumor growth inhibition, once a week dosing. In kind it is in vivo. An excerpt:
Applicants have discovered that for compounds that display a […] binding mechanism with slow, tight-binding kinetics, the Ki* value is a much better predictive tool for cell potency than is Ki. In some embodiments, such compounds have a strong pharmacodynamic profile, resulting in long term cell activity that would allow for shorter dosing regimens in vivo. A typical dosing regimen for Aurora inhibitors in animal models is, e.g., at least once a day dosing. In one embodiment, applicants' invention allows for selecting compounds that may be dosed less than once a day.

Where two headings read alike, the source gives them in different places.

Sequence of Aurora-1 (Aurora B) (Q96GD4 whole entry): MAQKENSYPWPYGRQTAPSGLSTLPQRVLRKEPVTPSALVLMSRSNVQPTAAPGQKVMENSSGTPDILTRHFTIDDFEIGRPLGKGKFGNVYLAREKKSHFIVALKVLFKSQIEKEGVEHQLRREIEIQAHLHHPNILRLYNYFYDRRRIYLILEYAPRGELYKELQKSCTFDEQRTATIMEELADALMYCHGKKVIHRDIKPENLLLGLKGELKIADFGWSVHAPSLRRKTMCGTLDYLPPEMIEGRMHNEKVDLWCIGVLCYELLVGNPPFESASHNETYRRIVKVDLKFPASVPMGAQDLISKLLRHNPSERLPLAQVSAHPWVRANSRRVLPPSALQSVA

For the compound `CCC(=O)Nc1ccc(Sc2nc(NCCN3CCCCC3)cc(Nc3cc(C)n[nH]3)n2)cc1` [Compound 1], the figures for the Ki at Aurora-2 (Aurora A) (read-out: Aurora A Ki) and on Aurora-1 (Aurora B) were 8.85 nM and 34.5 nM, respectively.
For `CCC(=O)Nc1ccc(Sc2nc(Nc3cc(C)n[nH]3)cc(N3CCN(C(C)(C)C)CC3)n2)cc1` [Compound 2], the Ki on Aurora-2 (Aurora A) came to 2.12 nM; on Aurora-1 (Aurora B) it was 11.2 nM. Moreover, the tumor growth inhibition result in the assay with tumor is “very good tumor growth inhibition”.
As for `Cc1cc(Nc2cc(N3CCN(C(C)(C)C)CC3)nc(Sc3ccc(NC(=O)C4CC4)cc3)n2)[nH]n1` [Compound 3], the inhibition constant Ki came to 2.12 nM at Aurora-2 (Aurora A) (read-out: Aurora A Ki) and 22.3 nM at Aurora-1 (Aurora B).
With `COc1cccc(Sc2nc(NC3=NN=C(C)C3)cc(N3CCN(C(C)(C)C)CC3)n2)c1` [Compound 4], the inhibitory constant (Ki) at Aurora-2 (Aurora A) (read-out: Aurora A Ki) was determined as 8.5 nM; on Aurora-1 (Aurora B) it was 145 nM.
For `Cc1cc(Nc2cc(N3CCN(C(C)(C)C)CC3)nc(Sc3ccc(NC(=O)C4CCCC4)cc3)n2)[nH]n1` [Compound 5], the Ki at Aurora-2 (Aurora A) (read-out: Aurora A Ki) was determined as 3.47 nM; on Aurora-1 (Aurora B), 21.2 nM.
For `C#CC(C)(C)N1CCN(c2cc(Nc3cc(C)n[nH]3)nc(Sc3ccc(NC(=O)CC)cc3)n2)CC1` [Compound 6] the same measures were 1.82 nM and 14 nM.
For `CCC(=O)Nc1ccc(Sc2nc(Nc3cc(C)n[nH]3)cc(N3CCC(N4CCCC4)CC3)n2)cc1` [Compound 7] the same measures were 4.6 nM and 50.3 nM.
For `CCC(=O)Nc1ccc(Sc2nc(Nc3cc(C)n[nH]3)cc(N3CCN(C(C)(C)CO)CC3)n2)cc1` [Compound 8] the same measures were 2.77 nM and 15.3 nM.
Regarding `CCC(=O)Nc1ccc(Sc2nc(Nc3cc(C)n[nH]3)cc(N3CCN(C(C)(C)CC)CC3)n2)cc1` [Compound 9], the inhibition constant (Ki) at Aurora-2 (Aurora A) (read-out: Aurora A Ki) turned out to be 2.6 nM; on Aurora-1 (Aurora B) it was 19.3 nM.
As to `CCC(=O)Nc1ccc(Sc2nc(Nc3cc(C)n[nH]3)cc(N3CCN(C(C)(C)CF)CC3)n2)cc1` [Compound 10], the Ki worked out at 1.98 nM at Aurora-2 (Aurora A) (read-out: Aurora A Ki) and 22.5 nM at Aurora-1 (Aurora B).
`CCC(=O)Nc1ccc(Sc2nc(Nc3cc(C)n[nH]3)cc(N3CCC(NC(C)(C)C)CC3)n2)cc1` [Compound 11]: the results for the Ki on Aurora-2 (Aurora A) (read-out: Aurora A Ki) and on Aurora-1 (Aurora B) were 7.7 nM and 28 nM, respectively.
As for `Cc1cc(Nc2cc(N3CCC3)nc(Sc3ccc(NC(=O)CC(F)(F)F)cc3)n2)n[nH]1` [Compound 12], the Ki on Aurora-2 (Aurora A) (read-out: Aurora A Ki) worked out at 0.707 nM; on Aurora-1 (Aurora B) it was 7.17 nM.
For `Cc1cc(Nc2cc(N3CCC3)nc(Sc3ccc(NC(=O)c4ccccc4C(F)(F)F)cc3)n2)[nH]n1` [Compound 13], in that order: 0.382 nM and 4.47 nM.
For `CCC(=O)Nc1ccc(Sc2nc(Nc3cc(C)n[nH]3)cc(N3CCC(O)(C(C)(C)C)CC3)n2)cc1` [Compound 14] the same measures were 0.595 nM and 13.5 nM.
For `CCC(=O)Nc1ccc(Sc2nc(Nc3cc(C)n[nH]3)cc(N3CCC(N(C)C(C)(C)C)CC3)n2)cc1` [Compound 15], in that order: 2.5 nM and 31.5 nM.
As for `CCC(=O)Nc1ccc(Sc2nc(Nc3cc(C)n[nH]3)cc(N3CC[C@H](N4CCCC4)C3)n2)cc1` [Compound 16], the values for the inhibitory constant (Ki) at Aurora-2 (Aurora A) (read-out: Aurora A Ki) and at Aurora-1 (Aurora B) were 5.75 nM and 97.7 nM, respectively.
Consider `CCC(=O)Nc1ccc(Sc2nc(Nc3cc(C)n[nH]3)cc(N3CCC4(CCN(C)C4)CC3)n2)cc1` [Compound 17], for which the Ki was determined as 2.05 nM on Aurora-2 (Aurora A) (read-out: Aurora A Ki) and 59.7 nM at Aurora-1 (Aurora B).
For `CCC(=O)Nc1ccc(Sc2nc(Nc3cc(C4CC4)n[nH]3)cc(N3CCC(N4CCCC4)CC3)n2)cc1` [Compound 18] the same measures were 2.75 nM and 14.5 nM.
For `CCC(=O)Nc1ccc(Sc2nc(Nc3cc(C)n[nH]3)cc(N3CC4CN(C(C)C)CC4C3)n2)cc1` (stereo not drawn) [Compound 19], in that order: 5.4 nM and 34.5 nM.
Turning to `CCC(=O)Nc1ccc(Sc2nc(Nc3cc(C)n[nH]3)cc(N3CC(O)(C(C)(C)C)C3)n2)cc1` [Compound 20], the values for the inhibition constant (Ki) at Aurora-2 (Aurora A) (read-out: Aurora A Ki) and at Aurora-1 (Aurora B) were 0.35 nM and 4.5 nM, respectively.
Regarding `CCC(=O)Nc1ccc(Sc2nc(Nc3cc(C)n[nH]3)cc(N3CC(O)(C4CC4)C3)n2)cc1` [Compound 21], the Ki on Aurora-2 (Aurora A) (read-out: Aurora A Ki) was 0.387 nM.
Turning to `CCC(=O)Nc1ccc(Sc2nc(Nc3cc(C)n[nH]3)cc(N3CC(C)(N4CCCC4)C3)n2)cc1` [Compound 22], the inhibition constant Ki on Aurora-2 (Aurora A) (read-out: Aurora A Ki) came to 0.68 nM; on Aurora-1 (Aurora B), 5 nM.
For `CCC(=O)Nc1ccc(Sc2nc(Nc3cc(C)n[nH]3)cc(N3CC=C(C(C)(C)C)CC3)n2)cc1` [Compound 23] the same measures were 0.524 nM and 612 nM.
For the compound `CCC(=O)Nc1ccc(Sc2nc(Nc3cc(C)n[nH]3)cc(N3CCC(O)(c4cc(F)ccc4OC)CC3)n2)cc1` [Compound 24], the Ki is 0.365 nM at Aurora-2 (Aurora A) (read-out: Aurora A Ki) and 140 nM on Aurora-1 (Aurora B).
On to `CCC(=O)Nc1ccc(Sc2nc(Nc3cc(C)n[nH]3)cc(N3CCC(C#N)(c4ccccc4OC)CC3)n2)cc1` [Compound 25], for which the Ki was 0.895 nM on Aurora-2 (Aurora A) (read-out: Aurora A Ki) and 230 nM at Aurora-1 (Aurora B).
For `CCC(=O)Nc1ccc(Sc2nc(Nc3cc(C)n[nH]3)cc(N3CC4(C3)OCC4(C)C)n2)cc1` [Compound 26] the same measures were 0.735 nM and 25 nM.
For `CCC(=O)Nc1ccc(Sc2nc(Nc3cc(C)n[nH]3)cc(N3CCC(O)(C(C)(C)C)C3)n2)cc1` (stereo not drawn) [Compound 27] the same measures were 0.35 nM and 102 nM.
For `CCC(=O)Nc1ccc(Sc2nc(Nc3cc(C)n[nH]3)cc(N3CC(C)(OC(C)C)C3)n2)cc1` [Compound 28], in that order: 1.35 nM and 14.5 nM.
Turning to `CCC(=O)Nc1ccc(Sc2nc(Nc3cc(C)n[nH]3)cc(N3CC(O)(C(C)C)C3)n2)cc1` [Compound 30], the Ki at Aurora-2 (Aurora A) (read-out: Aurora A Ki) was 1.15 nM.
In the case of `Cc1cc(Nc2cc(N3CC(O)(C4CC4)C3)nc(Sc3ccc(NC(=O)C4CC4)cc3)n2)n[nH]1` [Compound 31], the inhibition constant Ki on Aurora-2 (Aurora A) (read-out: Aurora A Ki) turned out to be 0.865 nM; at Aurora-1 (Aurora B), 7.05 nM.
For `Cc1cc(Nc2cc(N3CCC(F)C3)nc(Sc3ccc(NC(=O)CC(F)(F)F)cc3)n2)[nH]n1` (stereo not drawn) [Compound 32] the same measures were 0.35 nM and 4 nM.
For `Cc1cc(Nc2cc(N3CCC(N4CCCC4)CC3)nc(Sc3ccc4ccccc4c3)n2)[nH]n1` [Compound 33] the same measures were 6.85 nM and 64 nM.
For `Cc1cc(Nc2cc(N3CC(O)(C4CC4)C3)nc(Sc3ccc4ccccc4c3)n2)n[nH]1` [Compound 34] the same measures were 0.63 nM and 51 nM.
For the compound `Cc1cc(Nc2cc(N3CC(F)(C4CC4)C3)nc(Sc3ccc(NC(=O)CC(F)(F)F)cc3)n2)[nH]n1` [Compound 35], the Ki at Aurora-2 (Aurora A) (read-out: Aurora A Ki) stood at 0.354 nM; at Aurora-1 (Aurora B), 6.78 nM.
As to `CCOc1ccc(Sc2nc(Nc3cc(C)n[nH]3)cc(N3CCN(C(C)(C)C)CC3)n2)cc1` [Compound 36], the figures for the Ki on Aurora-2 (Aurora A) (read-out: Aurora A Ki) and on Aurora-1 (Aurora B) were 5.2 nM and 45.5 nM, respectively.
